The values that follow come from article PMC9794428, “Enzyme Inhibitory Activities of Extracts and Carpachromene from the Stem of Ficus benghalensis” (BioMed Research International, 2022).

The structures appear in SMILES notation.

The test system of one assay is T1, PDE-1.
T1 construct: gene phosphodiesterase I; substrate bis(p-nitrophenyl) phosphate type, pH 8.8 and Mg acetate fit the usual snake venom phosphodiesterase I, not the docking model human PDE1B (5W6E)
Nature of the assay: bis(p-nitrophenyl) substrate hydrolysis, […] nm. It counts as biochemical. The conditions noted are these: 0.33 mM bis(p-nitrophenyl) substrate, Mg acetate, Tris-HCl pH 8.8, 37 °C.

Assay [1] deals with T2, mushroom tyrosine [tyrosinase].
T2 construct: gene PPO1; docking model 1WX2 is another species (Streptomyces)
Nature of the assay: L-DOPA oxidation, absorbance […] nm. It counts as biochemical. Conditions: L-DOPA (printed L-DOP) substrate, phosphate buffer, 37 °C.

As for `CC1(C)C=Cc2c(cc3oc(-c4ccc(O)cc4)cc(=O)c3c2O)O1` [compound 1, carpachromene], the values for the IC50 (with PDE-1; in assay [1]) were 209.4 ± 1.87 µM and 40.5 ± 2 µM, respectively.
In the assay with PDE-1 (chelator used as standard), `O=C(O)CN(CCN(CC(=O)O)CC(=O)O)CC(=O)O` [EDTA] had an IC50 of 264.1 ± 1.09 µM.
`O=c1cc(CO)occ1O` [Kojic acid] displayed an IC50 in assay [1] of 44 ± 1.1 µM.

What is called IC50 is the point on the concentration scale where inhibition reaches its midpoint. Low values mean greater potency in that assay, high ones weaker potency in that assay.
